Results: ChEMBL document CHEMBL4706711, “Alkaloids of Delphinium grandiflorum and their implication to HO-induced cardiomyocytes injury” (Bioorg Med Chem, 2021)
Calls of active or inactive are those of the source. The rule behind the calls is not given here.

What was measured:
[1] = test system: H9c2; assay: Cytotoxicity against rat H9c2 cells assessed as reduction in cell viability at 50 uM measured after 24 hrs by CCK8 assay; assay type: cell-based; details: h9c2, 24 h
[2] = test system: H9c2; assay: Cardioprotective activity against rat H9c2 cells assessed as reduction in H2O2-induced cell death preincubated for 24 hrs followed by H2O2 stimulation and measured after 1 hr by CCK8 assay; assay type: functional, cell-based
[3] = test system: H9c2; assay: Cardioprotective activity against rat H9c2 cells assessed as reduction in H2O2-induced cell death at 50 uM preincubated for 24 hrs followed by H2O2 stimulation and measured after 1 hr by CCK8 assay; assay type: functional, cell-based; details: time 25.0 hrs
[4] = test system: H9c2; assay: Cardioprotective activity against rat H9c2 cells assessed as reduction in H2O2-induced ROS generation at 2 uM preincubated for 24 hrs followed by H2O2 stimulation and measured after 1 hr by DCFH-DA staining based flow cytometry; assay type: functional, cell-based; details: time 25.0 hrs
[5] = test system: H9c2; assay: Cardioprotective activity against rat H9c2 cells assessed as reduction in H2O2-induced apoptosis by measuring up regulation of Bcl2 expression at 2 uM preincubated for 24 hrs followed by H2O2 stimulation and measured after 1 hr by Western blot analysis; assay type: functional, cell-based; details: time 25.0 hrs
[6] = test system: H9c2; assay: Cardioprotective activity against rat H9c2 cells assessed as reduction in H2O2-induced apoptosis by measuring down regulation of Bax expression at 2 uM preincubated for 24 hrs followed by H2O2 stimulation and measured after 1 hr by Western blot analysis; assay type: functional, cell-based; details: time 25.0 hrs
[7] = test system: H9c2; assay: Cardioprotective activity in H2O2-induced mitochondrial membrane potential loss in rat H9c2 cells assessed as increase in MMP level at 2 uM preincubated for 24 hrs followed by H2O2 stimulation and measured after 1 hr by JC1 staining based flow cytometry; assay type: functional, cell-based; details: time 25.0 hrs
[8] = test system: H9c2; assay: Activation of AMPKalpha in H2O2-induced rat H9c2 cells assessed as increase in AMPKalpha phosphorylation at […] residues at 2 uM preincubated for 24 hrs followed by H2O2 stimulation and measured after 1 hr by Western blot analysis; details: filed as activator, time 25.0 hrs
[9] = test system: H9c2; assay: Activation of AMPKalpha in H2O2-induced rat H9c2 cells assessed as reduction in AKT expression at 2 uM preincubated for 24 hrs followed by H2O2 stimulation and measured after 1 hr by Western blot analysis; details: filed as activator, time 25.0 hrs
[10] = test system: H9c2; assay: Activation of AMPKalpha in H2O2-induced rat H9c2 cells assessed as reduction in mTOR expression at 2 uM preincubated for 24 hrs followed by H2O2 stimulation and measured after 1 hr by Western blot analysis; details: filed as activator, time 25.0 hrs

Row | SMILES | Activity [1] | IC50 [2] | Activity [3] | further results
1 | COC(=O)c1ccccc1NC(=O)CC(C)C(=O)O (stereo not drawn) | Non-Toxic | 1900 nM | – | –
2 | CO[C@H]1[C@@H]2C[C@@H]3[C@H]1[C@](O)(C[C@@H]2OC)[C@@]1(O)C2[N+]([O-])=C[C@]4(CO)CC[C@H](OC)[C@@]23[C@@H]4[C@@H]1OC | – | – | inactive | –
3 | CCN1C(=O)[C@]2(CO)CC[C@H](OC)[C@]34C1[C@](O)([C@@H](OC)[C@H]23)[C@@]1(O)C[C@H](OC)[C@H]2C[C@@H]4[C@@H]1[C@H]2OC | Non-Toxic | 1880 nM | Active | Activity [4]: Active; Activity [5]: Active; Activity [6]: Active; Activity [7]: Active; Activity [8]: Active; Activity [9]: Active; Activity [10]: Active
4 | CCN1C(=O)[C@]2(CO)CC[C@H](OC)[C@]34C1O[C@@](O)([C@@H](OC)[C@H]23)[C@@]1(O)C[C@H](OC)[C@@H]2C[C@@H]4[C@@H]1[C@H]2OC | Non-Toxic | – | Active | –
5 | CO[C@H]1[C@@H]2C[C@@H]3[C@H]1[C@](O)(C[C@@H]2OC)C(=O)[C@@H](OC)[C@@H]1[C@@]2(COC(C)=O)CC[C@H](OC)[C@@]31C=[N+]([O-])C2 | – | – | inactive | –
6 | CCN1C2OC(=O)[C@]3(CO)CC[C@H](OC)C24[C@@H]2C[C@@H]5[C@H](OC)[C@@H]2[C@](O)(C[C@@H]5OC)[C@]1(O)[C@@H](OC)[C@@H]43 | Non-Toxic | – | Active | –
